Here are results for 32 molecules from patent publication US9517227B2, “Dihydropyrazoles” (Merck Patent GmbH, priority 2011, dated 2016).

One assay concerns the target T1, FSHR (Homo sapiens, UniProt P23945).
T1 construct: expressed in transfected cells; host or cells: CHO (Cho-FSHR-LUC-1-1-43)
T1 sequence (P23945 18-695): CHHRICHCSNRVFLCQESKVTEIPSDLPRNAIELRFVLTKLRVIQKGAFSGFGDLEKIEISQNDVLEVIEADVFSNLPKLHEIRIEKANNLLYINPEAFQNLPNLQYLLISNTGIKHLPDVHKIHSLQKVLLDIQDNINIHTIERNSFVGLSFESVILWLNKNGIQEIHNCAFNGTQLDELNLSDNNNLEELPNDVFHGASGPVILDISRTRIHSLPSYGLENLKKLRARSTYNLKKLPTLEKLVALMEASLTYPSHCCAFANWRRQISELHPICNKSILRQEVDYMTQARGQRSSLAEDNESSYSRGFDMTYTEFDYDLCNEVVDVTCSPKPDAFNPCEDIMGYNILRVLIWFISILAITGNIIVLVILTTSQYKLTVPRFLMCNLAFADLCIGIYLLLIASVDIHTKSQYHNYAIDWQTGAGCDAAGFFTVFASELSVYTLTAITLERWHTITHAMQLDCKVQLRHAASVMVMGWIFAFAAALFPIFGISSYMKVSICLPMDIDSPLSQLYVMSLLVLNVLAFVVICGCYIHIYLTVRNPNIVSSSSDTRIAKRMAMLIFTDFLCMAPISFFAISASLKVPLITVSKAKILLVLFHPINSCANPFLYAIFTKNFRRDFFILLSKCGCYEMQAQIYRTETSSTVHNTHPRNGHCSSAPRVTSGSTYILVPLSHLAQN
Nature of the assay: EC50 of cyclic AMP production in CHO FSHR cells + EC20 FSH (Assay A). It is filed as cell-based. The note with it: CHO-FSHR-LUC cells, 0.265 pM FSH (EC20), cAMP HTRF, 1 h. The protocol:
EC50 of Cyclic AMP Production in CHO FSHR Cells+EC20 FSH (Assay A)
2500 Cho-FSHR-LUC-1-1-43 cells were plated per well in 5 μl of phenol red free DMEM/F12+1% FBS. Cells were plated in 384 well, solid white low volume plates (Greiner 784075) by Multidrop. Cells were assayed by adding 100 μl of 2×EC20 FSH/IBMX in DMEM/F12+0.1% BSA) by Multidrop to 2 μl of test compound stamped in 384 well plates (compounds are diluted 1:50). The final FSH concentration was 0.265 pM, and the final IBMX concentration was 200 μM. The compound plate map was as follows: Column 1: 2 μl of DMSO; Column 2: 2 μl of DMSO; Columns 3-12 and 13-24: 2 μl of test compound, diluted 1:4 in 100% DMSO, or 2 μl of FSH, diluted 1:4 in DMEM/F12+0.1% BSA. The starting concentration for FSH was 50 nM (final concentration was 0.5 nM). Furthermore, Column 23 contained 2 μl of EC100 FSH reference (100×) (diluted in DMEM/F12+0.1% BSA) at a final concentration of 0.5 nM, and Column 24 contained 2 μl of 1 mM AS707664/2 reference compound 2. 5 μl of compound+EC20 FSH mixture were transferred to cell plates (1:2 dilution into 5 μl of cell media). The plates were incubated at 37° C. for 1 h. 10 μl of mixed HTRF (CisBio #62AM4PEC) reagents were added per well and incubated at room temperature for 1 h. The plates were read on Envision using the cAMP HTRF—low volume 384 well protocol. The readout was the calculated fluorescence ratio (665 nm/620 nm).

Assay [1] deals with T2, follicle-stimulating hormone (FSH) receptor (Rattus norvegicus, UniProt P20395).
T2 construct: endogenous in cells; host or cells: rat granulosa cells
T2 sequence (P20395 18-692): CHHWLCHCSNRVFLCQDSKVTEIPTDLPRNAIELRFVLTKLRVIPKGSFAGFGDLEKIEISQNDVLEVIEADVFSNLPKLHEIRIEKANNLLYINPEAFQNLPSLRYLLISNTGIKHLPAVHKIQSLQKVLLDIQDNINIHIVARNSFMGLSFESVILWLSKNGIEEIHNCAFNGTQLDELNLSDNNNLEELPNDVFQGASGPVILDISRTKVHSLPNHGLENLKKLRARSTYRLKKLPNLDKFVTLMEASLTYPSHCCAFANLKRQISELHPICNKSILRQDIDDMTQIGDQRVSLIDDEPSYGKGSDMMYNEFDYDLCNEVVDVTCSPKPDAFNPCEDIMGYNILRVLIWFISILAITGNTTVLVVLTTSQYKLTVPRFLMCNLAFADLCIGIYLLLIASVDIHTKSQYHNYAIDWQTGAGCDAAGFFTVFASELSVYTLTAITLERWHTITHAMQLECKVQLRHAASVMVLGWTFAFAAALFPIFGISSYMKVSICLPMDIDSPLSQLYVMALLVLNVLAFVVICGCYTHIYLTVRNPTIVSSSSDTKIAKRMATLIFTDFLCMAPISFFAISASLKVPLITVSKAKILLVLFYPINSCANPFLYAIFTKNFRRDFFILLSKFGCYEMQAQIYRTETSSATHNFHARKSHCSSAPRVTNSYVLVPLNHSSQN
Nature of the assay: Rat granulosa EC50 FSH (Assay B). The note with it: rat granulosa cells; for EC50: per Yanofsky et al. 2006; for Assay B: value given in % (rat granulosa): meaning of % not stated. Format: cell-based. As to the method:
Rat Granulosa EC50 FSH (Assay B)
The assay was performed pursuant to the teaching of Yanofsky et al. (2006) Allosteric activation of the follicle-stimulating hormone (FSH) receptor by selective, nonpeptide agonists. JBC 281(19): 13226-13233, which is incorporated by reference in the disclosure of the invention.

For `COc1ccc(C2=NN(C(=O)c3cccc(F)c3)CC2)cc1OC` [Compound 1], the values for the EC50 (at FSHR; in assay [1]) were 16.7 µM and 0.878 µM, respectively.
Molecule `COc1ccc(C2=NN(C(=O)[C@H](OC)c3ccccc3)CC2)cc1OC` [Compound 290] showed an EC50 in assay [1] of 5.4 µM.
For `COc1ccc(C2=NN(C(=O)c3cccc(Cl)c3)C(C)(C)C2)cc1OC` [Compound 251, (3-Chloro-phenyl)-[3-(3,4-dimethoxy-phenyl)-5,5-dimethyl-4,5-dihydro-pyrazol-1-yl]-methanone], on FSHR, the EC50 stood at 27.1 µM.
Same read-out and setting: in the case of `COc1ccc(C2=NN(C(=O)C(OC)c3ccc(C)cc3)CC2)cc1OC` (stereo not drawn) [Compound 282] it was 27 µM; in that of `CSc1ccc(C2=NN(C(=O)c3ccc4c(c3)OCO4)CC2)cc1` [Compound 205, Benzo[1,3]dioxol-5-yl-[3-(4-methylsulfanyl-phenyl)-4,5-dihydro-pyrazol-1-yl]-methanone], 30 µM.
In the case of `COc1ccc(C2=NN(C(=O)c3cccc(C)c3)CC2)cc1OC` [Compound 65], the EC50 at FSHR was 21 µM; in assay [1], 5.09 µM.
On to `CCc1ccc(C(=O)N2N=C(c3ccc(OC)c(OC)c3)CC2(C)C)cc1` [Compound 259, [3-(3,4-Dimethoxy-phenyl)-5,5-dimethyl-4,5-dihydro-pyrazol-1-yl]-(4-ethyl-phenyl)-methanone], for which the EC50 on FSHR came out at 30 µM.
Still for that read-out and setting: in the case of `O=C(c1ccc2c(c1)OCO2)N1CCC(c2ccc(OC(F)(F)F)cc2)=N1` [Compound 199, Benzo[1,3]dioxol-5-yl-[3-(4-trifluoromethoxy-phenyl)-4,5-dihydro-pyrazol-1-yl]methanone] it was 34.3 µM.
As to `CCc1cccc(C(=O)N2CCC(c3ccc(OC)c(OC)c3)=N2)c1` [Compound 93], the EC50 was determined as 27 µM on FSHR and 0.726 µM in assay [1].
In the case of `Cn1ccc2cc(C3=NN(C(=O)c4cccc(F)c4)CC3)ccc21` [Compound 185], at FSHR, the EC50 was 4.5 µM.
For `COc1ccc(C2=NN(C(=O)c3cccc(C(F)(F)F)c3)C(C)(C)C2)cc1OC` [Compound 234, [3-(3,4-Dimethoxy-phenyl)-5,5-dimethyl-4,5-dihydro-pyrazol-1-yl]-(3-trifluoromethyl-phenyl)-methanone], the EC50 was 22.4 µM on FSHR and 0.699 µM in assay [1].
Consider `COc1ccc(C2=NN(C(=O)c3ccc(Br)cc3)C(C)(C)C2)cc1OC` [Compound 257, (4-Bromo-phenyl)-[3-(3,4-dimethoxy-phenyl)-5,5-dimethyl-4,5-dihydro-pyrazol-1-yl]-methanone], for which the EC50 at FSHR worked out at 33.2 µM.
With `COc1ccc(C2=NN(C(=O)[C@@H](OC)c3ccccc3)CC2)cc1OC` [Compound 292], the EC50 at FSHR amounted to 29 µM. Further, the “Assay B: value given in % (rat granulosa)” value in assay [1] is recorded as 186.00%.
As to `COc1ccc(-c2ccn(C(=O)c3ccc4c(c3)OCO4)n2)cc1OC` [Compound 148], the values for the EC50 (at FSHR; in assay [1]) were 2.88 µM and 3.4 µM, respectively.
On the same counts, the results for `COc1ccc(C2=NN(C(=O)c3cccc(OC(F)(F)F)c3)C(C)(C)C2)cc1OC` [Compound 231, [3-(3,4-Dimethoxy-phenyl)-5,5-dimethyl-4,5-dihydro-pyrazol-1-yl]-(3-trifluoromethoxy-phenyl)-methanone] are 23.8 µM and 1.15 µM.
Take `COc1ccc(C2=NN(C(=O)C(OC)c3cccc(C(F)(F)F)c3)CC2)cc1OC` (stereo not drawn) [Compound 277]: the EC50 on FSHR was 2 µM.
Still for that read-out and setting: the result for `COc1ccc(C2=NN(C(=O)c3cccc(F)c3)CC2(C)C)cc1OC` [Compound 149, [3-(3,4-Dimethoxy-phenyl)-4,4-dimethyl-4,5-dihydro-pyrazol-1-yl]-(3-fluoro-phenyl)-methanone] reads 0.382 µM; that for `COc1ccc(C2=NN(C(=O)Cc3cccc(F)c3)C(C)(C)C2)cc1OC` [Compound 255, 1-[3-(3,4-Dimethoxy-phenyl)-5,5-dimethyl-4,5-dihydro-pyrazol-1-yl]-2-(3-fluoro-phenyl)-ethanone], 35 µM.
With `O=C(c1cccc(F)c1)N1CCC(c2ccc3c(c2)OCCO3)=N1` [Compound 189], the EC50 at FSHR was determined as 28 µM.
Same read-out and setting: the result for `COc1ccc(C2=NN(C(=O)c3cccc(F)c3)CC2)c(OC)c1OC` [Compound 223] reads 31.2 µM.
Regarding `COc1ccc(C2=NN(C(=O)C(OC)c3ccccc3)CC2)cc1OC` (stereo not drawn) [Compound 291], the “Assay B: value given in % (rat granulosa)” value in assay [1] was found to be 144.00%.
In the case of `COc1ccc(C2=NN(C(=O)c3ccc(C(F)(F)F)c(F)c3)CC2)cc1OC` [Compound 75], on FSHR, the EC50 was determined as 5.7 µM.
On to `COc1ccc(C2=NN(C(=O)c3ccc(Cl)cc3)C(C)(C)C2)cc1OC` [Compound 247, (4-Chloro-phenyl)-[3-(3,4-dimethoxy-phenyl)-5,5-dimethyl-4,5-dihydro-pyrazol-1-yl]-methanone], for which the EC50 on FSHR turned out to be 35.2 µM.
Same read-out and setting: in the case of `COc1ccc(C(OC)C(=O)N2CCC(c3ccc(OC)c(OC)c3)=N2)cc1` (stereo not drawn) [Compound 275] it was 24 µM.
Same read-out and setting: in the case of `COc1ccc(C2=NN(C(=O)c3cccc(F)c3)CC2)cc1S(=O)(=O)NCc1ccccc1` [Compound 214] it was 1.1 µM.
Regarding `COc1ccc(C2=NN(C(=O)c3ccccc3F)C(C)(C)C2)cc1OC` [Compound 228, [3-(3,4-Dimethoxy-phenyl)-5,5-dimethyl-4,5-dihydro-pyrazol-1-yl]-(2-fluoro-phenyl)-methanone], the EC50 in assay [1] stood at 0.134 µM.
For the molecule `CSc1ccc(C2=NN(C(=O)c3cccc(F)c3)CC2)cc1` [Compound 204, (3-Fluoro-phenyl)-[3-(4-methylsulfanyl-phenyl)-4,5-dihydro-pyrazol-1-yl]methanone], at FSHR, the EC50 came out at 8.25 µM.
Regarding `Cc1cccc(C2=NN(C(=O)c3cccc(F)c3)CC2)c1` [Compound 179, (3-Fluoro-phenyl)-(3-m-tolyl-4,5-dihydro-pyrazol-1-yl)-methanone], the EC50 at FSHR worked out at 34 µM.
Same read-out and setting: the result for `CC(C)(C)Oc1ccc(C2=NN(C(=O)c3cccc(F)c3)CC2)cc1` [Compound 210] reads 7.39 µM.
In assay [1], `COc1ccc(C2=NN(C(=O)c3cccc(Oc4ccccc4)c3)C(C)(C)C2)cc1OC` [Compound 229, [3-(3,4-Dimethoxy-phenyl)-5,5-dimethyl-4,5-dihydro-pyrazol-1-yl]-(3-phenoxy-phenyl)-methanone] yielded an EC50 of 0.032 µM.
Regarding `COc1ccc(C2=NN(C(=O)C(OC)c3ccc(Cl)cc3)CC2)cc1OC` (stereo not drawn) [Compound 274], on FSHR, the EC50 stood at 25 µM.
Turning to `O=C(c1cccc(F)c1)N1CCC(c2ccc(C(F)(F)F)cc2)=N1` [Compound 207], the EC50 at FSHR came out at 44.5 µM.
